Experimental data taken from US20210087156A1, “PHARMACEUTICALLY ACCEPTABLE SALTS OF BENZODICYCLOALKANE DERIVATIVE, P[…] THEREOF, AND APPLICATION THEREOF” (priority 2018, published 2021).
In brackets after ≈: the same amount, converted by molar mass.

What was measured:
[1] = In vivo test of rats: pharmacokinetics after oral administration; conditions: male, SD, rat, 10 mg/kg, oral administration of dezocine in rats, dose of dezocine 10mpk
Description: LC-MS/MS method was applied for the determination of the drug concentration in plasma at different times after the example compounds were orally administered to rats in order to study the pharmacokinetic behavior of the compounds of the invention in vivo in rats and evaluate their pharmacokinetic characteristics.
Test Animals: healthy Adult male SD rats (weight 200-300 g, 3, fasted), provided by SLAC company;
Administration and Dosage: (16 mg/kg or 24 mg/kg, 10 mL/kg, 5% 1,2-propanediol (1,2-Propanediol, Shanghai Titan Technology Co., Ltd. Lot No.: P1057349)) was administered via oral gavage to SD rats;
Blood collection: firstly, the animals which were selected to meet the test requirements prior to administration were weighed. The rats were bound before the blood collection, blood from each administered rat was taken at predetermined time points, (blood was collected at 0.083, 0.25, 0.5, 1, 2, 4, 6, 8 h before and after administration respectively, 9 time points in total), about 150 μl of blood was collected via orbital vein. Blood was transferred to a 1.5 ml tube to which K2EDTA was added previously. The collected blood sample was put on ice, and centrifuged to obtain plasma sample (2000 g, 5 min under 4° C.) within 15 minutes. All the plasma samples were stored at approximately −70° C. until analysis.
LC/MS/MS method was applied to determine the concentrations of the drug. […]

δ opioid receptors = δ opioid receptors (Homo sapiens, UniProt P41143); conditions: background statement; cited from earlier work
[2] = background statement, cited from earlier work
[3] = target: T1, hERG potassium ion channel (Homo sapiens, UniProt Q12809); assay: Inhibition of hERG potassium ion channel, manual whole-cell patch clamp in CHO hERG cells; assay type: cell-based
T1 construct: host or cells: CHO cells stably expressing hERG
Description: 2.1.1 Cells used in this experiment are CHO cell lines (supplied by Sophion Bioscience, Denmark) which are hERG cDNA transfectant and stably express hERG channels, cell progeny is P15. Cells are cultured in medium containing the following ingredients Invitrogen): Ham's F12 medium, 10% (v/v) inactivated fetal bovine serum, […] hygromycin B, […] Geneticin.
2.1.2 CHO hERG cells were grown in Petri dishes containing the above medium and cultured in an incubator containing 5% CO2 at 37° C. […]
In this experiment, whole-cell current recording was performed using a manual patch clamp system (HEKA EPC-10 signal amplification and digital conversion system, purchased from HEKA Electronic, Germany) The round glass slide of which surface CHO hERG cells were grown on was placed in an electrophysiological recording slot under an inverted microscope. […] The hERG potassium current recorded in the above steps should be superfused for test drug after the steady perfusion state of the extracellular fluid in the recording slot is stabilized until the inhibition of the hERG current by the drug reached a steady state. […]
The test data were analyzed by the data analysis software provided by HEKA Patchmaster (V2x73.2), Microsoft Excel and Graphpad Prism 5.0.

[4] = Solubility test at room temperature; assay type: physicochemical; conditions: room temperature, shaken 24 h
Description: The solubility of the crystal form A, the crystal form C and the free base in 0.1 M HCL, pH 4.5, or pH 6.8 buffer or water was tested at room temperature. In the test, the standard curves of the crystal form A, the crystal form C and the free base were plotted respectively. Subsequently, a appropriate amount of the crystal form A, the crystal form C and the free base was weighed respectively, to which was added a appropriate amount of solvent. The mixture was shaken at room temperature for 24 h, centrifuged. The supernatant was taken and the solubility was determined. The results are shown in Table 7, (the concentration unit is mg/mi).

[5] = Stability test of free base, crystal form A and crystal form C (content and related substance); assay type: physicochemical; conditions: 5° C.
Description: The crystal form and purity change were measured respectively on 3rd and 7th day. The results are shown in Table 6, FIGS. 22, 23, 24 and 25. […]

CYP3A4 = target: T2, CYP3A4 (Homo sapiens, UniProt P08684); assay: Inhibition of CYP enzyme (CYP3A4, midazolam substrate, HLM); assay type: in vitro ADME
T2 construct: Add 200 μL of 0.2 mg/mL HLM to the assay wells; from tissue; host or cells: liver microsomes (HLM)
Description: 1. Preheat 0.1 M potassium phosphate buffer (K-buffer), pH 7.4:
100 mM K-Buffer: mix 9.5 mL Stock A into 40.5 mL Stock B, bring total volume to 500 mL with Milli-Q water, titrate the buffer with KOH or H3PO4 to pH 7.4.
Stock A (1 M monobasic potassium phosphate): 136.5 g of monobasic potassium phosphate in 1 L of Milli-Q water.
Stock B (1 M dibasic potassium phosphate): 174.2 g of dibasic potassium phosphate in 1 L of Milli-Q water.
2. Prepare serial dilution for test compounds and reference inhibitors (400×) in a 96-well plate:
2.1 Transfer 8 μL of 10 mM test compounds to 12 μL of ACN.
2.2 Prepare individual inhibitor spiking solution for reference: 8 μL of DMSO stock to 12 μL of ACN.
2.3 Prepare 1:3 serial dilutions in DMSO:ACN mixture (v/v: 40:60).
3. Prepare 4×NADPH cofactor (66.7 mg NADPH in 10 mL 0.1 M K-buffer, pH7.4).
4. Prepare 4×substrate (2 mL for each isoform) as indicated in the table below (add HLM where required on ice).
5. Prepare 0.2 mg/mL HLM solution (10 μL of 20 mg/mL to 990 μL of 0.1 M K-buffer) on ice.
6. Add 200 μL of 0.2 mg/mL HLM to the assay wells and then add 1 μL of test compounds or reference compounds into the designated wells on ice.
7. Add following solutions (in duplicate) in a 96-well assay plate on ice:
7.1 Add 30 μL of 2×test compounds and reference compound in 0.2 mg/mL HLM solution;
7.2 Add 15 μL of 4×substrate solution.
8. […]

[6] = Potency compared with the existing dezocine (statement, no method given)

T2 sequence (P08684 whole entry): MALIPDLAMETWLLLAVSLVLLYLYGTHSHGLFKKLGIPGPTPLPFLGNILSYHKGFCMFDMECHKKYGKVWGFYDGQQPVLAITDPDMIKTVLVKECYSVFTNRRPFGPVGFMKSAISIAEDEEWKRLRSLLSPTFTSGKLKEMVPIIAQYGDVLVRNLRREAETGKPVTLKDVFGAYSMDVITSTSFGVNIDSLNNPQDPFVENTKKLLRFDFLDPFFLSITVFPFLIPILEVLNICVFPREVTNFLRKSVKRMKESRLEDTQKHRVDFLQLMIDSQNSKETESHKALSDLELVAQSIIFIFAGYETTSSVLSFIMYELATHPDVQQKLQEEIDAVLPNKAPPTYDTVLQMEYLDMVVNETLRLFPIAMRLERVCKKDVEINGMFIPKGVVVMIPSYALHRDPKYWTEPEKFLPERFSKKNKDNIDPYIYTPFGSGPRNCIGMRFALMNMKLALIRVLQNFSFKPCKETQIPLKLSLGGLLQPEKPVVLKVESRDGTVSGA
T1 sequence (Q12809 whole entry): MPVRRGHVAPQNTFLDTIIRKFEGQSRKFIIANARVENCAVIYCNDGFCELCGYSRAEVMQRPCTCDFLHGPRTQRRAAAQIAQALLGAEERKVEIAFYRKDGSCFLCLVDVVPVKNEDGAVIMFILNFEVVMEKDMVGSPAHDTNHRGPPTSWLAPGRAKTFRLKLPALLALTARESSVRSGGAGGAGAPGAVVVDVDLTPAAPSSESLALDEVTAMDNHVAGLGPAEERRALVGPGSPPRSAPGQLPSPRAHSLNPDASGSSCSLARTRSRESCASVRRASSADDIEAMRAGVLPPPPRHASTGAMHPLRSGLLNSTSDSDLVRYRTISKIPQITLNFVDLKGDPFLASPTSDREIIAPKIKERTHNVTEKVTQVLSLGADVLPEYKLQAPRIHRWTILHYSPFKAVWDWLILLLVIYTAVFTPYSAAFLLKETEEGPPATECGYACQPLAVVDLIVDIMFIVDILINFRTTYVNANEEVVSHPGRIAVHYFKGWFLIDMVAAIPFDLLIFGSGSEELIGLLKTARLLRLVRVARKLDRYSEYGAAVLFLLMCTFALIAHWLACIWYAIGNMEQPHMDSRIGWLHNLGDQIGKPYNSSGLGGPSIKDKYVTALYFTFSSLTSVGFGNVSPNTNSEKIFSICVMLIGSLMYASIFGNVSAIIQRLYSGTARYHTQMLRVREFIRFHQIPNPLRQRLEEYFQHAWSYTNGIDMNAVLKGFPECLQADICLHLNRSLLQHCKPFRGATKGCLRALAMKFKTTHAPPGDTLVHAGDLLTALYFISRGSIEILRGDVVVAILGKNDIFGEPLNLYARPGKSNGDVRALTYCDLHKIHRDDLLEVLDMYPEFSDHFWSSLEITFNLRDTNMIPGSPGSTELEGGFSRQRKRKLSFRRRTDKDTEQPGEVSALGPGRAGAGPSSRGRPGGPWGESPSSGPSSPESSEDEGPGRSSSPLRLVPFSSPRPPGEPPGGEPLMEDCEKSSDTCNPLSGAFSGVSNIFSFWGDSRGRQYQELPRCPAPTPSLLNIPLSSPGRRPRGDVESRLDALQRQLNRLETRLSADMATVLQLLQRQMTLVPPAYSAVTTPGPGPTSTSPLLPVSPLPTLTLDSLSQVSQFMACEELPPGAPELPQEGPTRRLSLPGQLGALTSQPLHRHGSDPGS
δ opioid receptors, sequence (P41143 whole entry): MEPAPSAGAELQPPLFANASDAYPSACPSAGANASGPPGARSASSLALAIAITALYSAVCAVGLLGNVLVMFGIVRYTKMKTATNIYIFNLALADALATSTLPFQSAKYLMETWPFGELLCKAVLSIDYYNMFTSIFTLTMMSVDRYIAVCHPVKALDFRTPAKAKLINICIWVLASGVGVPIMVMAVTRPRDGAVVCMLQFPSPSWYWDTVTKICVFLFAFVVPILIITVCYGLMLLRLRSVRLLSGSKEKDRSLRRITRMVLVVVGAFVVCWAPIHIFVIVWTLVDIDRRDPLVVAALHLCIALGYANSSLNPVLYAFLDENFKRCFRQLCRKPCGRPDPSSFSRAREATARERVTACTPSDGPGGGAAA

C[C@@]12CCCCC[C@@H](Cc3ccc(O)cc31)[C@@H]2N [dezocine]
AUC [1]: 58.6 ng·h/mL | activity on δ opioid receptors (in words) (δ opioid receptors): very weak | oral bioavailability [2]: ≤ 5% | time after which the blood drug concentration falls below the effective level ([2]; injection): 2 to 3 h

C[C@@]12CCCCC[C@@H](Cc3ccc(OC(=O)NC4COC4)cc31)[C@@H]2N [free base of Compound X]
inhibitory activity on the hERG potassium ion channel (in words) ([3]; 10 μM): little inhibitory activity | inhibition at 10 μM ([3]; human, CHO cells stably expressing hERG channels, CHO hERG cells, patch clamp, ~25° C.): 20.6% | Final pH ([4]; 0.1M HCL): 1.30 | phenomenon ([4]; 0.1M HCL): Flocculent | solubility ([4]; 0.1M HCL): 18860 µg/mL (≈ 54.8 mM) | Final pH ([4]; H2O): 8.61 | phenomenon ([4]; H2O): turbid | solubility ([4]; H2O): 50 µg/mL (≈ 0.145 mM) | Final pH ([4]; pH 4.5 buffer): 6.41 | phenomenon ([4]; pH 4.5 buffer): turbid | solubility ([4]; pH 4.5 buffer): 3750 µg/mL (≈ 10.9 mM) | Final pH ([4]; pH 6.8 buffer): 6.78 | phenomenon ([4]; pH 6.8 buffer): turbid | solubility ([4]; pH 6.8 buffer): 2030 µg/mL (≈ 5.89 mM) | RRT(%) 0.76 (related substance) ([5]; 0 d): 1.19% | RRT(%) 1.29 (related substance) ([5]; 0 d): 3.35% | RRT(%) 1.53 (related substance) ([5]; 0 d): 0.18% | RRT(%) 1.59 (related substance) ([5]; 0 d): 0.97% | RRT(%) 1.75 (related substance) ([5]; 0 d): 0.43% | Area (%) ([5]; 0 d (control)): 93.88% | Total impurity (%) ([5]; 0 d (control)): 6.12% | character ([5]; 0 d (control)): off-white solid | inhibitory activity on CYP3A4 (in words) (CYP3A4; 1 μM): little inhibitory activity | inhibition at 5 min, 1 μM (CYP3A4; human, human liver microsomes, pH 7.4, probe midazolam, substrate midazolam (M), 0.1 mg/mL HLM, read-out: CYP3A4(M) inhibition rate/1 μM): 23.8% | potency compared with the existing dezocine [6]: increased more than three-fold
